This assay concerns L1210 leukemia ip in BDF1 mice, survival T/C. The experiment in a line: NCI In Vivo Anticancer Drug Screen. Data for tumor model L1210 Leukemia (intraperitoneal) in B6D2F1 (BDF1) mice. Conditions: endpoint: mean survival time, higher = longer survival. Summed up: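 Ratio derived from survival: compound-dosed mice over vehicle-dosed mice, all bearing a transplantable tumor.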
Where [1] appears, read: dose: 100.0 mg/kg/injection, schedule: Q01DX001 (ip), vehicle: saline.
Where [2] appears, read: dose: 200.0 mg/kg/injection, schedule: Q01DX001 (ip), vehicle: saline.
Where [3] appears, read: dose: 400.0 mg/kg/injection, schedule: Q01DX001 (ip), vehicle: saline.
Setting [4] is: dose: 50.0 mg/kg/injection, schedule: Q01DX009 (ip), vehicle: Klucel (hydroxypropylcellulose) (HPC).
Setting [5] is: dose: 100.0 mg/kg/injection, schedule: Q01DX009 (ip), vehicle: Klucel (hydroxypropylcellulose) (HPC).
The mark [6] stands for this setting: dose: 200.0 mg/kg/injection, schedule: Q01DX009 (ip), vehicle: Klucel (hydroxypropylcellulose) (HPC).
The mark [7] stands for this setting: dose: 100.0 mg/kg/injection, schedule: Q04DX003 (ip), vehicle: saline with Tween-80.
The mark [8] stands for this setting: dose: 200.0 mg/kg/injection, schedule: Q04DX003 (ip), vehicle: saline with Tween-80.
The mark [9] stands for this setting: dose: 400.0 mg/kg/injection, schedule: Q04DX003 (ip), vehicle: saline with Tween-80.
Where [10] appears, read: dose: 100.0 mg/kg/injection, schedule: Q01DX009 (ip), vehicle: saline with Tween-80.
Setting [11] is: dose: 200.0 mg/kg/injection, schedule: Q01DX009 (ip), vehicle: saline with Tween-80.
Setting [12] is: dose: 400.0 mg/kg/injection, schedule: Q01DX009 (ip), vehicle: saline with Tween-80.
[13] abbreviates: dose: 100.0 mg/kg/injection, schedule: Q04DX003 (ip), vehicle: Klucel (hydroxypropylcellulose) (HPC).
Where [14] appears, read: dose: 200.0 mg/kg/injection, schedule: Q04DX003 (ip), vehicle: Klucel (hydroxypropylcellulose) (HPC).
Where [15] appears, read: dose: 400.0 mg/kg/injection, schedule: Q01DX009 (ip), vehicle: Klucel (hydroxypropylcellulose) (HPC).
Setting [16] is: dose: 400.0 mg/kg/injection, schedule: Q04DX003 (ip), vehicle: Klucel (hydroxypropylcellulose) (HPC).

Several values for one entry are separate records, joined by “and”; a condition that tells them apart may be missing. Identical values can stand only once. Inconclusive results and toxic doses are left out.

With `Cc1ccc(NC(=O)N(CCCl)N=O)cc1C`, the T/C is 114 % of control (dose: 0.5 mg/kg/injection, schedule: Q01DX009 (ip), vehicle: carboxymethylcellulose (CMC)); 119 % of control (dose: 1.0 mg/kg/injection, schedule: Q01DX009 (ip), vehicle: carboxymethylcellulose (CMC)); 114 % of control (dose: 1.5 mg/kg/injection, schedule: Q01DX001 (ip), vehicle: carboxymethylcellulose (CMC)); 103 % of control (dose: 2.0 mg/kg/injection, schedule: Q01DX009 (ip), vehicle: carboxymethylcellulose (CMC)); 158 % of control (dose: 4.0 mg/kg/injection, schedule: Q01DX009 (ip), vehicle: carboxymethylcellulose (CMC)); 119 % of control (dose: 6.0 mg/kg/injection, schedule: Q01DX001 (ip), vehicle: carboxymethylcellulose (CMC)). Moreover, the T/C is, setting by setting: (dose: 8.8 mg/kg/injection, schedule: Q01DX009 (ip), vehicle: carboxymethylcellulose (CMC)) 249 % of control; (dose: 13.3 mg/kg/injection, schedule: Q01DX009 (ip), vehicle: carboxymethylcellulose (CMC)) 159 % of control; (dose: 19.0 mg/kg/injection, schedule: Q01DX001 (ip), vehicle: carboxymethylcellulose (CMC)) 173 % of control; (dose: 29.0 mg/kg/injection, schedule: Q01DX001 (ip), vehicle: carboxymethylcellulose (CMC)) 214 % of control; (dose: 30.0 mg/kg/injection, schedule: Q01DX009 (ip), vehicle: carboxymethylcellulose (CMC)) 103 % of control; (dose: 44.0 mg/kg/injection, schedule: Q01DX001 (ip), vehicle: carboxymethylcellulose (CMC)) 210 % of control and 298 % of control. Further, the T/C by setting is: (dose: 66.0 mg/kg/injection, schedule: Q01DX001 (ip), vehicle: carboxymethylcellulose (CMC)) 257 % of control; (dose: 100.0 mg/kg/injection, schedule: Q01DX001 (ip), vehicle: carboxymethylcellulose (CMC)) 218 % of control and 263 % of control.

Take `C=CCC1CC2(C)C(CCC3C2CCC2(C)C(OC(C)=O)CCC32)CC1=O` (stereo unspecified): the T/C is, setting by setting: (dose: 10.0 mg/kg/injection, schedule: Q01DX009 (ip), vehicle: gum acacia) 89 % of control; (dose: 200.0 mg/kg/injection, schedule: Q01DX009 (ip), vehicle: gum acacia) 88 % of control.

In the case of `CC1(C)OCC(C2OC(C)(C)OC2C(CO)Nc2ccc([N+](=O)[O-])cc2[N+](=O)[O-])O1` (stereo unspecified), the T/C was 98 % of control under setting [1], 93 % of control under setting [2] and 93 % of control under setting [3].

Take `CCOC(=O)/C=C(\CC(=O)OCC)Nc1ccc(C(=O)c2ccccc2)cc1`: the T/C under setting [2] is 89 % of control.

For `CC(=O)NC1=C(S(=O)(=O)O)c2ccccc2C1`, the T/C is, setting by setting: under setting [1], 105 % of control; (dose: 100.0 mg/kg/injection, schedule: Q01DX009 (ip), vehicle: saline) 98 % of control; (dose: 100.0 mg/kg/injection, schedule: Q04DX002 (ip), vehicle: saline) 94 % of control and 110 % of control and 118 % of control; (dose: 100.0 mg/kg/injection, schedule: Q04DX003 (ip), vehicle: saline) 104 % of control; under setting [2], 115 % of control; (dose: 200.0 mg/kg/injection, schedule: Q01DX009 (ip), vehicle: saline) 98 % of control and 104 % of control. For the same compound, the T/C by setting is: (dose: 200.0 mg/kg/injection, schedule: Q04DX002 (ip), vehicle: saline) 94 % of control and 103 % of control; (dose: 200.0 mg/kg/injection, schedule: Q04DX003 (ip), vehicle: saline) 96 % of control; under setting [3], 108 % of control; (dose: 400.0 mg/kg/injection, schedule: Q01DX009 (ip), vehicle: saline) 105 % of control and 106 % of control; (dose: 400.0 mg/kg/injection, schedule: Q04DX002 (ip), vehicle: saline) 102 % of control and 109 % of control and 88 % of control; (dose: 400.0 mg/kg/injection, schedule: Q04DX003 (ip), vehicle: saline) 102 % of control.

`ON(C(=Nc1ccccc1)c1ccccc1)c1ccccc1`: the T/C reads like this: (dose: 50.0 mg/kg/injection, schedule: Q01DX001 (ip), vehicle: saline) 102 % of control; under setting [1], 101 % of control.

In the case of `CCOC(=O)c1cnc2c(ccc3cc(OC)ccc32)c1Cl`, the T/C runs as follows: under setting [4], 101 % of control; under setting [5], 97 % of control; under setting [6], 101 % of control.

Turning to `Cc1cc(C(C)(C)CC(C)(C)C)cc(O)c1O`, the T/C runs as follows: (dose: 100.0 mg/kg/injection, schedule: Q01DX009 (ip), vehicle: other) 94 % of control; (dose: 100.0 mg/kg/injection, schedule: Q04DX003 (ip), vehicle: other) 96 % of control; (dose: 200.0 mg/kg/injection, schedule: Q01DX009 (ip), vehicle: other) 94 % of control; (dose: 200.0 mg/kg/injection, schedule: Q04DX003 (ip), vehicle: other) 93 % of control; (dose: 400.0 mg/kg/injection, schedule: Q01DX009 (ip), vehicle: other) 94 % of control; (dose: 400.0 mg/kg/injection, schedule: Q04DX003 (ip), vehicle: other) 91 % of control.

As for `CCCCCN(CCCCC)C(=S)[S-].CCCCCN(CCCCC)C(=S)[S-].[Zn]`, the T/C reads like this: (dose: 100.0 mg/kg/injection, schedule: Q04DX003 (ip), vehicle: carboxymethylcellulose (CMC)) 94 % of control; (dose: 200.0 mg/kg/injection, schedule: Q04DX003 (ip), vehicle: carboxymethylcellulose (CMC)) 100 % of control; (dose: 400.0 mg/kg/injection, schedule: Q04DX003 (ip), vehicle: carboxymethylcellulose (CMC)) 91 % of control.

For `CC(C)C1(C(=O)N2CCCCC2=O)SCCCS1`, the T/C was 94 % of control under setting [7], 90 % of control under setting [8] and 92 % of control under setting [9].

In the case of `CNC(=O)Oc1cccc(NC(=O)OC2CCCCC2)c1`, the T/C is 89 % of control under setting [10], 97 % of control under setting [11] and 89 % of control under setting [12].

Take `Oc1ccccc1/C=N/c1ccccn1`: the T/C (dose: 25.0 mg/kg/injection, schedule: Q01DX009 (ip), vehicle: Klucel (hydroxypropylcellulose) (HPC)) is 106 % of control and the T/C under setting [4] is 97 % of control.

Consider `O=S(=O)(Cc1ccccc1)Nc1cccc(S(=O)(=O)OCc2ccccc2)c1`, for which the T/C was 102 % of control (dose: 100.0 mg/kg/injection, schedule: Q01DX001 (ip), vehicle: Klucel (hydroxypropylcellulose) (HPC)); 104 % of control under setting [5]; 100 % of control under setting [13]; 98 % of control (dose: 200.0 mg/kg/injection, schedule: Q01DX001 (ip), vehicle: Klucel (hydroxypropylcellulose) (HPC)); 95 % of control under setting [6]; 94 % of control under setting [14]. Moreover, the T/C reads like this: (dose: 400.0 mg/kg/injection, schedule: Q01DX001 (ip), vehicle: Klucel (hydroxypropylcellulose) (HPC)) 106 % of control; under setting [15], 97 % of control; under setting [16], 92 % of control.

For the compound `O=c1[nH]cnc2ncn(Cc3ccccc3)c12`, the T/C reads like this: (dose: 12.5 mg/kg/injection, schedule: Q04DX002 (ip), vehicle: Klucel (hydroxypropylcellulose) (HPC)) 115 % of control; (dose: 25.0 mg/kg/injection, schedule: Q04DX002 (ip), vehicle: Klucel (hydroxypropylcellulose) (HPC)) 88 % of control; (dose: 50.0 mg/kg/injection, schedule: Q04DX002 (ip), vehicle: Klucel (hydroxypropylcellulose) (HPC)) 102 % of control.

Regarding `CC(=O)OCCN1C(=O)CN=C(c2ccccn2)c2cc(Cl)ccc21`, the T/C by setting is: under setting [5], 99 % of control; under setting [13], 100 % of control; under setting [6], 102 % of control; under setting [14], 101 % of control; under setting [15], 94 % of control; under setting [16], 97 % of control.

As for `c1cc(C2CCCCC2)ccc1-c1ccc(C2CCCCC2)cc1`, the T/C was 94 % of control under setting [10]; 98 % of control under setting [7]; 94 % of control under setting [11]; 101 % of control under setting [8]; 97 % of control under setting [12]; 90 % of control under setting [9].

In the case of `CCCCNC(=O)n1ncc2cc(Cl)ccc21`, the T/C runs as follows: under setting [1], 103 % of control; under setting [2], 100 % of control; under setting [3], 94 % of control.

These data come from PubChem BioAssay AID248 (DTP/NCI, 2004).
